Results on two compounds are retold here after patent US7196112B2, “Cell adhesion inhibitors” (Biogen Idec MA Inc., priority 2004, dated 2007).

Series [1] addresses T1, α4β1 (Homo sapiens, UniProt P05556+P13612). Nature of the series: Equilibrium binding on Jurkat cells, competition with 35S-B as reporter.
Method: The α4β1-expressing Jurkat human T-cell line (a gift from S. Burakoff, Dana Farber Cancer Institute, Boston, Mass.), and the α4β7-expressing human B-cell line, JY (American Type Tissue Collection, Rockville, Md.) were maintained in culture at 37° C. in RPMI-1640 medium supplemented with 10% fetal bovine serum (FBS). K562 cell lines transfected with either the human α1-integrin chain (Phil Gotwells, Biogen, Inc) or with the human α2 integrin chain (a gift from M. Hemler, Dana Farber Cancer Institute, Boston, Mass.) were maintained in RPMI-1640 medium supplemented with 10% FBS and 1 mg/mL G418. All cells were periodically monitored for high integrin surface expression by FACS analysis. The binding of the various inhibitors to α4β1 were assessed on Jurkat cells by competition using radioactive ^35S-B as a reporter for a 1 occupancy. Jurkat cells were pelleted by centrifugation, washed two times with TBS (50 mM Tris HCl, 150 mM NaCl, 0.1% bovine serum albumin, 2 mM glucose, 10 mM HEPES pH 7.4), suspended at approximately 2×10^6 cells/mL in TBS, and counted using a Neubauer hemocytometer. The cells were further diluted 2×10^6 cells/mL with TBS containing 1 mM CaCl2 and 1 mM MgCl2 and treated with serial dilutions of test compound for 1 hour, and then 5 nM ^35S-B, an amount sufficient to bind all unoccupied receptors, was added for 10 minutes before measuring the bound counts. The cells were then pelleted by centrifugation, resuspended in 100 μL of TBS plus Mn^2+, and transferred to a scintillation vial containing 2.9 mL of ScintiVerse II (Fisher Scientific). Cell-associated radioactivity was quantified by scintillation counting. All studies were performed in siliconized 1.5 mL eppendorf tubes with a standard 1 mL sample volume. Each condition was tested in at least two independent studies. Non-specific binding of ^35S-B to cells was assessed at each cell density and ^35S-B concentration in TBS but in the absence of added metal ion. Specific counts bound were calculated by subtracting non specific counts from total counts bound. Counts bound under these conditions measures integrin that is not occupied by the test compound and is therefore free to bind the ^35S-B. The competition format was also used for kinetic binding studies. Binding and dissociation constants were calculated from α4β1 that remained free to bind the ^35S-B after treatment with test compound.
The affinities of the PEGylated inhibitors for α4β1 were calculated from association and disassociation rate constants using a kinetic analysis. For these studies, Jurkat cells expressing α4β1 (75,000 copies/cell) were treated with the inhibitors and then ^35S-B was added as a probe to detect free α4β1. The levels of bound inhibitor were calculated from a measure of total ^35S-B bound in the absence of added inhibitor and counts bound following inhibitor treatment. […] IC50 values were calculated from equilibrium binding studies on Jurkat cells through competition using ^35S-B as a reporter in buffer containing 1 mM Ca^2+ and 1 mM Mg^2+.
Second, the effect of protein binding on the affinity of the PEGylated inhibitors for α4β1 on Jurkat cells was evaluated from equilibrium binding measurements.
Series [2] addresses T1, α4β1. Nature of the series: Kinetic binding to α4β1 on Jurkat cells, competition with 35S-B as probe for free α4β1. On the set-up: endogenous in cells; host or cells: Jurkat human T-cell line. To be noted: for koff: read-out: koff/10^−4; for kon: read-out: kon/10^6; for Kd: calculated from on- and off-rate constants.
Method: All cells were periodically monitored for high integrin surface expression by FACS analysis. The binding of the various inhibitors to α4β1 were assessed on Jurkat cells by competition using radioactive ^35S-B as a reporter for a 1 occupancy. Jurkat cells were pelleted by centrifugation, washed two times with TBS (50 mM Tris HCl, 150 mM NaCl, 0.1% bovine serum albumin, 2 mM glucose, 10 mM HEPES pH 7.4), suspended at approximately 2×10^6 cells/mL in TBS, and counted using a Neubauer hemocytometer. The cells were further diluted 2×10^6 cells/mL with TBS containing 1 mM CaCl2 and 1 mM MgCl2 and treated with serial dilutions of test compound for 1 hour, and then 5 nM ^35S-B, an amount sufficient to bind all unoccupied receptors, was added for 10 minutes before measuring the bound counts. The cells were then pelleted by centrifugation, resuspended in 100 μL of TBS plus Mn^2+, and transferred to a scintillation vial containing 2.9 mL of ScintiVerse II (Fisher Scientific). Cell-associated radioactivity was quantified by scintillation counting. All studies were performed in siliconized 1.5 mL eppendorf tubes with a standard 1 mL sample volume. Each condition was tested in at least two independent studies. Non-specific binding of ^35S-B to cells was assessed at each cell density and ^35S-B concentration in TBS but in the absence of added metal ion. Specific counts bound were calculated by subtracting non specific counts from total counts bound. Counts bound under these conditions measures integrin that is not occupied by the test compound and is therefore free to bind the ^35S-B. The competition format was also used for kinetic binding studies. Binding and dissociation constants were calculated from α4β1 that remained free to bind the ^35S-B after treatment with test compound.
The affinities of the PEGylated inhibitors for α4β1 were calculated from association and disassociation rate constants using a kinetic analysis. For these studies, Jurkat cells expressing α4β1 (75,000 copies/cell) were treated with the inhibitors and then ^35S-B was added as a probe to detect free α4β1. The levels of bound inhibitor were calculated from a measure of total ^35S-B bound in the absence of added inhibitor and counts bound following inhibitor treatment.
A short description of series [3]: Pharmacokinetics in female Lewis rats, noncompartmental analysis. To be noted: rat, in vivo. Here is the method: Blood samples (250 μL/bleed) were obtained at specific timepoints after administration. For compound H, blood samples were drawn at 0, 8 minutes, 15 minutes, 30 minutes, and after 1 hour, 2, 4, 6, 8, 24, 32, 48, 72 and 168 hours following i.v. administration, and 1, 2, 4, 6, 8, 24, 32, 48, and 72 hours following s.c. administration. Serum samples were analyzed for compound H levels using an electrochemiluminescence assay. PK parameters were calculated from the […] data by noncompartmental analysis. PK parameters include CMAX (maximum serum concentration), tMAX (time to achieve maximum serum concentration), CL (systemic clearance), Vss (volume of distribution at steady state), t1/2 (terminal phase half-life), and bioavailability. Area under the curve (AUC) was calculated using the trapezoidal rule. Percent bioavailability was calculated from the following equation: (AUCextravascular/AUCIV)×(DoseIV/Doseextravascular)×100. For compound R^1, blood samples were drawn and analyzed as previously described (see Leone, D. R., et al. (2003) J. Pharmacol. Exp. Ther. 305:1150–1162).
Dilutions of test samples in 50 mM HEPES pH 7.5, 100 mM NaCl, 0.1% Triton X-100, 1 mM MnCl2, 1% rat plasma, 50 ng/mL α4β1 and 0.1 μg/mL ruthenium labeled mAb B5G10 were incubated at room temperature for 20 min. 0.5 nM A-biotin was added and samples were incubated for 60 minutes at room temperature. 50 μL of a 0.5 mg/mL solution of Dynabeads M-280 Streptavidin beads (Cat No. 402–175-02, Igen, Inc., Gaithersburg, Md.) that have been prepared in assay buffer containing 8% rat plasma was added and the samples were incubated for 30 minutes at room temperature with constant mixing. 150 μL of Origen assay buffer was added and samples were analyzed in a model 1100–1000 Origen analyzer (Igen, Inc) following the manufacturer's instructions. Concentrations of compound H were interpolated from a standard curve generated with compound H that had been diluted with plasma.
The pharmacokinetic properties of compounds H and R were evaluated by noncompartmental analysis following i.v. and s.c. administration in female Lewis rats (FIG. 2). […] Compound R was rapidly cleared from circulation.

Where [4] appears, read: IC50, buffer with 1 mM Ca2+ and 1 mM Mg2+, no plasma.

SMILES strings stand for the structures.

T1 sequence (P13612 34-1032): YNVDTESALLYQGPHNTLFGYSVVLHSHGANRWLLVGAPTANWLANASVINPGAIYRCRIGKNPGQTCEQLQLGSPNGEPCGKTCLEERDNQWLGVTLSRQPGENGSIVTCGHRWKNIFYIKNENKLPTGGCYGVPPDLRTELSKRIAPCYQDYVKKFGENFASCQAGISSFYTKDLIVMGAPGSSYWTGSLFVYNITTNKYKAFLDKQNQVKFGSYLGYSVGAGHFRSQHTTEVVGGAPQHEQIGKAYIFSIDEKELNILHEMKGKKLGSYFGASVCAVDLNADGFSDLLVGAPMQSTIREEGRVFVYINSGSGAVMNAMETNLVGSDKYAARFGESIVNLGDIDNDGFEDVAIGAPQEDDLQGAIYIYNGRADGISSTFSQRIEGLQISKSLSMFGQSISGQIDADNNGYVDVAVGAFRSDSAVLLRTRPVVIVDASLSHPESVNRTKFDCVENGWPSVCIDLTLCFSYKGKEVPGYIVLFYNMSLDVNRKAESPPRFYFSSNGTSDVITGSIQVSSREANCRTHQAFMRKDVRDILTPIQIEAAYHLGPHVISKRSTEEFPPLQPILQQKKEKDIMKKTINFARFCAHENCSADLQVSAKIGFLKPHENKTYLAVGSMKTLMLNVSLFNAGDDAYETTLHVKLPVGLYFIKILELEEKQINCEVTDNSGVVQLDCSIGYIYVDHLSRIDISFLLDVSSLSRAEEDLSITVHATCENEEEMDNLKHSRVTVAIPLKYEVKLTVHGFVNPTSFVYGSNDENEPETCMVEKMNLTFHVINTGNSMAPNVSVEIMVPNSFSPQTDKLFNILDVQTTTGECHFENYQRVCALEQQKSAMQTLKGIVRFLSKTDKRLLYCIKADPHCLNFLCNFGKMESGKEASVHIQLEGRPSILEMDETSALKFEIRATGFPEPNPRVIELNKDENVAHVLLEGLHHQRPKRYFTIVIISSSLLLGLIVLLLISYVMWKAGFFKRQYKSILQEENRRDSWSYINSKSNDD
T1 sequence (P05556 21-798): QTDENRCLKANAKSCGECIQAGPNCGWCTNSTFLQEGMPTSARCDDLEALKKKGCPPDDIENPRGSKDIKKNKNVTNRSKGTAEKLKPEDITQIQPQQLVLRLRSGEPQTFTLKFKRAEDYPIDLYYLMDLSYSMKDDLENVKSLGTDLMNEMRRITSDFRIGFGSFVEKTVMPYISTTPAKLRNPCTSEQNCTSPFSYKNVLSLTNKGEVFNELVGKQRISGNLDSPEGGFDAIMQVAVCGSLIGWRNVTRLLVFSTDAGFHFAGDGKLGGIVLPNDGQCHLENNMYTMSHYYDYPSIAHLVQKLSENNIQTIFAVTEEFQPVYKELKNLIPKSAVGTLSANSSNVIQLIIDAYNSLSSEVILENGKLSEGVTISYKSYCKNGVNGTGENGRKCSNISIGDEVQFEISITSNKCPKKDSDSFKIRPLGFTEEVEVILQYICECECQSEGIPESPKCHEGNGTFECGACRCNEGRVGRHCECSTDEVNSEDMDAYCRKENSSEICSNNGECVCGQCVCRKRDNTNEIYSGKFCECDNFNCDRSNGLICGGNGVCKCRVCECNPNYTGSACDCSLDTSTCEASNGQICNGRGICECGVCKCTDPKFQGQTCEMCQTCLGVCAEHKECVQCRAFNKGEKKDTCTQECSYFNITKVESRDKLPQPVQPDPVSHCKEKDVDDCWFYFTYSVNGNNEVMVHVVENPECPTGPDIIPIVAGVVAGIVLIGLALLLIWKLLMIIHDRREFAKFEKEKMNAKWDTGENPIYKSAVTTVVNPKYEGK

For `Cc1ccccc1NC(=O)Nc1ccc(CC(=O)N(C)[C@@H](CC(C)C)C(=O)NCC[C@H](NC(=O)C2CCCN2S(=O)(=O)c2ccccc2)C(=O)O)cc1` (stereo partly drawn) [Compound B, 2S-[(1-benzenesulfonyl-pyrrolidine-2S-carbonyl)-amino]-4-[4-methyl-2S-(methyl-{2-[4-(3-o-tolyl-ureido)-phenyl]-acetyl}-amino)-pentanoylamino]-butyric acid], the IC50 on α4β1 [1] (IC50(HP), 100% human plasma) came to 1.5 nM. At α4β1 [1] (setting [4]), this compound gave an IC50 of 0.21 nM. For the same compound, the “% bound Ca2+Mg2+ 30 min” value at α4β1 [2] (Ca2+Mg2+, 30 min) is given as >90%. Moreover, on α4β1 [2] (Jurkat cells, 35S-B probe), the On-rate amounted to 4e+06 M⁻¹ s⁻¹, the koff came to 1.9e-05 s⁻¹ and the kon came to 4e+06 M⁻¹ s⁻¹. The “% bound Mn2+ 60 min” value at α4β1 [2] (Mn2+, 60 min) was >95%. On α4β1 [2] (Jurkat cells), the Kd was 0.005 nM. The compound further had a half-life in series [3] (iv) of 2.5 h. In series [3] (sc), this compound showed a bioavailability of 21%.
Turning to `Cc1ccccc1NC(=O)Nc1ccc(CC(=O)N(C)[C@@H](CC(C)C)C(=O)NCC[C@H](NC(=O)[C@@H]2CCCN2S(=O)(=O)c2cc(Cl)cc(Cl)c2)C(=O)O)cc1` [Compound R, 2S-{[1-(3,5-dichloro-benzenesulfonyl)-pyrrolidine-2S-carbonyl]-amino}-4-[4-methyl-2S-(methyl-{2-[4-(3-o-tolyl-ureido)-phenyl]-acetyl}-amino)-pentanoylamino]-butyric acid], the IC50 at α4β1 [1] (IC50(HP), 100% human plasma) amounted to 0.8 nM. At α4β1 [1] (setting [4]), this compound displayed an IC50 of 0.15 nM. On α4β1 [2] (Jurkat cells, 35S-B probe), the koff was 1.2e-05 s⁻¹ and the kon was found to be 1.5e+06 M⁻¹ s⁻¹. For the same compound, on α4β1 [2] (Jurkat cells), the dissociation constant Kd was 0.009 nM. In series [3] (iv, 1 mg/kg), the AUC worked out at 2300 ng·h/mL, the Cmax stood at 13100 ng/mL, the Tmax was found to be 0 h and the Vd came to 0.168 L/kg. In series [3] (iv, 1 mg/kg), the clearance was 7.1 mL/min/kg and the half-life is 1.1 h. For the same compound, in series [3] (sc, 10 mg/kg), the exposure (AUC) came to 6100 ng·h/mL, the CL is 27.17 mL/min/kg, the Cmax worked out at 780 ng/mL and the Tmax was 0.5 h. Besides, in series [3] (sc, 10 mg/kg), the bioavailability was determined as 20%, the half-life was 2.7 h and the “time >100 ng/mL blood levels were maintained” value turned out to be 12 h.

The IC50 is the concentration that gives 50% inhibition. A higher IC50 goes with weaker potency in that assay. Broadly, the Kd is the free concentration of one partner at which half of the binding sites on the other are occupied at equilibrium, for simple one-to-one binding. The half-life is the time in which the quantity being followed falls by half. A word on the bioavailability: it is the share of a dose that reaches the circulation, judged against a reference dose that is usually intravenous. The low end stands for little systemic uptake, the high end for much systemic uptake. The term AUC denotes concentration integrated over time. Broadly, the Cmax is the highest concentration seen after dosing. The term Tmax denotes the time from dosing to the highest level. Broadly, the Vd is a proportionality between amount in the body and measured concentration, not a real space. As usually defined, the clearance is the rate of elimination divided by the concentration. Higher therefore signals efficient removal.
